In ChEMBL document CHEMBL1201862, “PubChem BioAssay data set” (2004):
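Tested at 5 concentrations; 48 h exposure; 96-well plates; endpoints linearly interpolated, else capped at highest concentration. GI50 is the concentration that inhibits growth by half.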 Activity calls are given as the source filed them. No stated cut-off is given here; in the data, active = GI50 up to about 1.1 µM and inactive = higher.

Experiments:
Assay in all cases: NCI-60 cell line screen, 48 h
HCT-116 = system: HCT-116
UO-31 = system: UO-31
SF-268 = system: SF-268
786-0 = system: 786-0
M14 = system: M14
PC-3 = system: PC-3
A498 = system: A498
SK-MEL-2 = system: SK-MEL-2
IGROV-1 = system: IGROV-1
MDA-MB-435 = system: MDA-MB-435
UACC-62 = system: UACC-62
SN12C = system: SN12C
ACHN = system: ACHN
DU-145 = system: DU-145
KM12 = system: KM12
NCI-H23 = system: NCI-H23
COLO 205 = system: COLO 205
SNB-75 = system: SNB-75
SF-539 = system: SF-539
MCF7 = system: MCF7

SMILES	GI50 (HCT-116)	GI50 (UO-31)	GI50 (SF-268)	GI50 (786-0)	GI50 (M14)	GI50 (PC-3)	GI50 (A498)	GI50 (SK-MEL-2)	GI50 (IGROV-1)	GI50 (MDA-MB-435)	GI50 (UACC-62)	GI50 (SN12C)	GI50 (ACHN)	GI50 (DU-145)	GI50 (KM12)	GI50 (NCI-H23)	GI50 (COLO 205)	GI50 (SNB-75)	GI50 (SF-539)	GI50 (MCF7)
COc1ccc(CCCC(=O)O)c(C)c1	> 100 µM (inactive)	> 100 µM (inactive)	27.4 µM (inactive)	30.1 µM (inactive)	92.9 µM (inactive)	37.9 µM (inactive)	14.3 µM (inactive)	39 µM (inactive)	45.1 µM (inactive)	32.8 µM (inactive)	36.8 µM (inactive)	32 µM (inactive)	35.1 µM (inactive)	21.1 µM (inactive)	36.4 µM (inactive)	53.3 µM (inactive)				
COc1nc2[nH]ccc2c(=O)[nH]1	> 100 µM (inactive)	> 100 µM (inactive)	> 100 µM (inactive)		> 100 µM (inactive)		> 100 µM (inactive)	> 100 µM (inactive)	> 100 µM (inactive)			> 100 µM (inactive)	> 100 µM (inactive)		> 100 µM (inactive)	> 100 µM (inactive)	> 100 µM (inactive)	> 100 µM (inactive)	> 100 µM (inactive)	
COc1cc(C(=O)C/C(CCC(=O)Nc2ccc(Cl)cc2Cl)=N/NC(=O)C(=O)NN)ccc1O	> 100 µM (inactive)	> 100 µM (inactive)	> 100 µM (inactive)	> 100 µM (inactive)	> 100 µM (inactive)		> 100 µM (inactive)		> 100 µM (inactive)		53.8 µM (inactive)	> 100 µM (inactive)	> 100 µM (inactive)		> 100 µM (inactive)	> 100 µM (inactive)	> 100 µM (inactive)	> 100 µM (inactive)	> 100 µM (inactive)	
CCOC(=O)COc1cccc2occc(=O)c12	> 100 µM (inactive)	> 100 µM (inactive)	> 100 µM (inactive)	> 100 µM (inactive)	> 100 µM (inactive)		> 100 µM (inactive)	> 100 µM (inactive)	> 100 µM (inactive)		> 100 µM (inactive)	> 100 µM (inactive)	> 100 µM (inactive)		> 100 µM (inactive)	> 100 µM (inactive)	> 100 µM (inactive)		> 100 µM (inactive)	
O=C(NC(COC(=O)C(Cc1ccccc1)NC(=O)c1ccccc1)Cc1ccccc1)c1ccccc1 (centres undefined)		> 50 µM (inactive)	> 50 µM (inactive)		> 50 µM (inactive)	> 50 µM (inactive)	> 50 µM (inactive)	> 50 µM (inactive)	> 50 µM (inactive)	> 50 µM (inactive)	> 50 µM (inactive)		> 50 µM (inactive)		> 50 µM (inactive)	> 50 µM (inactive)		> 50 µM (inactive)	> 50 µM (inactive)	> 50 µM (inactive)
CCC(C)(C)n1c(C)nc2c1C(=O)c1ccccc1C2=O	13.6 µM (inactive)	25.7 µM (inactive)	29.6 µM (inactive)	39.5 µM (inactive)	42.5 µM (inactive)			18.7 µM (inactive)	34 µM (inactive)		13.5 µM (inactive)	31.5 µM (inactive)	32.9 µM (inactive)		23.8 µM (inactive)	27.7 µM (inactive)	17 µM (inactive)	27.2 µM (inactive)	26.5 µM (inactive)	
COC1/C=C/C(C)C(C(C)C(OC)C(C)CCC(=O)C(C)C(C/C=C/N(C)C=O)OC)OC(=O)/C=C/C=C(\C)CC(OC)CC2=CC(=O)O[C@H](C2)C(C)C(OC)CC(OC)/C=C/C(C)C(OC)C1 (some centres undefined)	< 0.005 µM (active)	0.0125 µM (active)	0.0336 µM (active)			0.00989 µM (active)		0.00733 µM (active)	0.0113 µM (active)	0.0286 µM (active)	0.00752 µM (active)	0.014 µM (active)		0.191 µM (active)	0.0094 µM (active)	0.0521 µM (active)		< 0.005 µM (active)		0.0292 µM (active)
COC1OC(=O)[C@H]2O[N+]([O-])=C(C)[C@@H]12 (some centres undefined)	> 100 µM (inactive)	> 100 µM (inactive)	> 100 µM (inactive)				> 100 µM (inactive)	> 100 µM (inactive)	> 100 µM (inactive)		> 100 µM (inactive)	> 100 µM (inactive)			> 100 µM (inactive)	> 100 µM (inactive)	> 100 µM (inactive)	> 100 µM (inactive)	> 100 µM (inactive)	> 100 µM (inactive)
OCC1OC(n2ccc3cnccc32)CC1O (centres undefined)	> 100 µM (inactive)	> 100 µM (inactive)		> 100 µM (inactive)	> 100 µM (inactive)		> 100 µM (inactive)	> 100 µM (inactive)	> 100 µM (inactive)		> 100 µM (inactive)	> 100 µM (inactive)	> 100 µM (inactive)		> 100 µM (inactive)	> 100 µM (inactive)	> 100 µM (inactive)	> 100 µM (inactive)	> 100 µM (inactive)	
Cc1cc(N(CCC#N)S(=O)(=O)c2ccccc2)ccc1/C=N\c1cccc(C(=O)O)c1	> 100 µM (inactive)	53.3 µM (inactive)	60.1 µM (inactive)		> 100 µM (inactive)			> 100 µM (inactive)	> 100 µM (inactive)		> 100 µM (inactive)	> 100 µM (inactive)	> 100 µM (inactive)			> 100 µM (inactive)	> 100 µM (inactive)	35.6 µM (inactive)	> 100 µM (inactive)	
Cc1ccc([N+](=O)[O-])cc1NC(=O)C(=O)C(C(=O)c1ccccc1F)C1OC(=O)c2ccccc21 (centres undefined)	31.5 µM (inactive)	49.1 µM (inactive)	25.5 µM (inactive)		66.8 µM (inactive)		98.4 µM (inactive)	25.9 µM (inactive)	59.7 µM (inactive)		33.7 µM (inactive)	33.8 µM (inactive)	62.2 µM (inactive)		52.5 µM (inactive)	38.5 µM (inactive)	38.9 µM (inactive)	38.5 µM (inactive)	24.5 µM (inactive)	
COc1ccc(NC(=O)CC/C(CC(=O)c2ccccc2Cl)=N\Nc2nnc(C)n2N)cc1	> 100 µM (inactive)	> 100 µM (inactive)	> 100 µM (inactive)	> 100 µM (inactive)				> 100 µM (inactive)	> 100 µM (inactive)		> 100 µM (inactive)	> 100 µM (inactive)	> 100 µM (inactive)		> 100 µM (inactive)	> 100 µM (inactive)	> 100 µM (inactive)		> 100 µM (inactive)	
O=c1c2c3c(sc2nc(CN2CCNCC2)n1-c1ccccc1)CCCC3	53.3 µM (inactive)	54.2 µM (inactive)	65.5 µM (inactive)	> 100 µM (inactive)	> 100 µM (inactive)	> 100 µM (inactive)	> 100 µM (inactive)	> 100 µM (inactive)	> 100 µM (inactive)		> 100 µM (inactive)	> 100 µM (inactive)	> 100 µM (inactive)	> 100 µM (inactive)	> 100 µM (inactive)	> 100 µM (inactive)	> 100 µM (inactive)	34.8 µM (inactive)		> 100 µM (inactive)
CC(=O)OCC1OC(n2c(-c3ccc(Cl)cc3)cc(-c3ccccc3)c(C#N)c2=S)C(OC(C)=O)C(OC(C)=O)C1OC(C)=O (centres undefined)	6.11 µM (inactive)	23.5 µM (inactive)	10.8 µM (inactive)	12.2 µM (inactive)	4.98 µM (inactive)	11.3 µM (inactive)			13.1 µM (inactive)	12.7 µM (inactive)	3.85 µM (inactive)	11.2 µM (inactive)	13.5 µM (inactive)	15.7 µM (inactive)	18.5 µM (inactive)	14.2 µM (inactive)	13.2 µM (inactive)	8.13 µM (inactive)	3.99 µM (inactive)	17.3 µM (inactive)
CC1(C)COC2C(N(Cc3ccccc3)Cc3ccccc3)C(=O)N21 (centres undefined)	33.4 µM (inactive)	64.3 µM (inactive)	25.2 µM (inactive)	31 µM (inactive)	23.1 µM (inactive)		48.8 µM (inactive)		41.9 µM (inactive)		25.1 µM (inactive)	47.3 µM (inactive)	35.6 µM (inactive)		37.8 µM (inactive)	34.3 µM (inactive)	25.1 µM (inactive)	20 µM (inactive)	25.9 µM (inactive)	
CN(C)c1n/c(=N/c2ccc(/N=c3\nc(N(C)C)ss3)cc2)ss1	15.1 µM (inactive)	44 µM (inactive)	37.9 µM (inactive)	63.7 µM (inactive)	12.9 µM (inactive)		33 µM (inactive)	69.5 µM (inactive)	27.5 µM (inactive)		3.38 µM (inactive)	40.3 µM (inactive)	36.9 µM (inactive)		47.3 µM (inactive)	12.4 µM (inactive)	28.2 µM (inactive)	13.5 µM (inactive)	35.4 µM (inactive)	
N#Cc1c(-c2ccccc2)cn(C(=O)c2ccccc2)c1N	> 100 µM (inactive)	> 100 µM (inactive)	> 100 µM (inactive)	> 100 µM (inactive)	> 100 µM (inactive)	> 100 µM (inactive)		> 100 µM (inactive)	> 100 µM (inactive)	> 100 µM (inactive)	> 100 µM (inactive)	> 100 µM (inactive)	> 100 µM (inactive)	> 100 µM (inactive)	> 100 µM (inactive)	> 100 µM (inactive)	> 100 µM (inactive)	> 100 µM (inactive)		> 100 µM (inactive)
